Data published in patent US11708367B2, “Compounds for the treatment of kinase-dependent disorders” (Exelixis, Inc., priority 2018, dated 2023).

Columns and labels:
Assay type in all cases: cell-based
AXL = AXL (Homo sapiens (Human), UniProt P30530); assay: AXL autophosphorylation ELISA in A-172 cells; conditions: cellular, Gas6-stimulated, phospho-AXL ELISA
Protocol: A-172 glioblastoma cells (ATCC #CRL-1620) were seeded at 2.5×10^5 cells/well onto 24-well plates (Greiner #662165), in DMEM (Thermo Fisher #11995-040) containing 10% FBS (Thermo Fisher #26140-079), 1% MEM NEAA (Thermo Fisher #11140-050), 1% GlutaMax (Thermo Fisher #35050-061), and 1% Penicillin Streptomycin (Thermo Fisher #15140-122). A-172 cells were incubated at 37° C., 5% CO2 for 24 h and then starved for 24 h in serum-free medium. Test compounds were serially diluted to produce an 8-point dose curve in fresh serum-free medium to a final concentration of 0.3% DMSO (vehicle) and added to the cells and incubated for 1 h. Cells were then stimulated with 1 μg/mL recombinant human Gas6 (R&D Systems #885-GSB-500) for 15 min, washed with cold PBS, and immediately lysed with 150 μL of cold IX lysis buffer [20 mM Tris, 137 mM sodium chloride, 2 mM EDTA, 10% glycerol, 1% NP-40 alternative, 1 mM activated sodium orthovanadate, 1 mM PefaBloc SC (Sigma-Aldrich #11429868001), protease/phosphatase inhibitor tablet (Thermo Fisher #A32959)]. Lysates were collected and 100 μL/well added into the human phospho-AXL Duo Set IC ELISA (R&D Systems #DYC2228-2). Assay was performed according to manufacturer's instructions and sample phospho-AXL concentrations were extrapolated using human phospho-AXL control (R&D Systems #841645) as a standard. Positive control wells (100% activity) contained Gas6-stimulated, DMSO-treated cell lysates. Negative control wells (0% activity) contained Gas6-stimulated, reference inhibitor-treated cell lysates. IC50 values were calculated by nonlinear regression analysis using a 4-parameter logistic curve fit in ActivityBase XL (IDBS).

Met = Met (Homo sapiens (Human), UniProt P08581); assay: Met autophosphorylation ELISA in PC-3 cells; conditions: cellular, HGF-stimulated, phospho-Met ELISA, read-out: c-Met IC50
Sequence of Met (P08581 25-1390): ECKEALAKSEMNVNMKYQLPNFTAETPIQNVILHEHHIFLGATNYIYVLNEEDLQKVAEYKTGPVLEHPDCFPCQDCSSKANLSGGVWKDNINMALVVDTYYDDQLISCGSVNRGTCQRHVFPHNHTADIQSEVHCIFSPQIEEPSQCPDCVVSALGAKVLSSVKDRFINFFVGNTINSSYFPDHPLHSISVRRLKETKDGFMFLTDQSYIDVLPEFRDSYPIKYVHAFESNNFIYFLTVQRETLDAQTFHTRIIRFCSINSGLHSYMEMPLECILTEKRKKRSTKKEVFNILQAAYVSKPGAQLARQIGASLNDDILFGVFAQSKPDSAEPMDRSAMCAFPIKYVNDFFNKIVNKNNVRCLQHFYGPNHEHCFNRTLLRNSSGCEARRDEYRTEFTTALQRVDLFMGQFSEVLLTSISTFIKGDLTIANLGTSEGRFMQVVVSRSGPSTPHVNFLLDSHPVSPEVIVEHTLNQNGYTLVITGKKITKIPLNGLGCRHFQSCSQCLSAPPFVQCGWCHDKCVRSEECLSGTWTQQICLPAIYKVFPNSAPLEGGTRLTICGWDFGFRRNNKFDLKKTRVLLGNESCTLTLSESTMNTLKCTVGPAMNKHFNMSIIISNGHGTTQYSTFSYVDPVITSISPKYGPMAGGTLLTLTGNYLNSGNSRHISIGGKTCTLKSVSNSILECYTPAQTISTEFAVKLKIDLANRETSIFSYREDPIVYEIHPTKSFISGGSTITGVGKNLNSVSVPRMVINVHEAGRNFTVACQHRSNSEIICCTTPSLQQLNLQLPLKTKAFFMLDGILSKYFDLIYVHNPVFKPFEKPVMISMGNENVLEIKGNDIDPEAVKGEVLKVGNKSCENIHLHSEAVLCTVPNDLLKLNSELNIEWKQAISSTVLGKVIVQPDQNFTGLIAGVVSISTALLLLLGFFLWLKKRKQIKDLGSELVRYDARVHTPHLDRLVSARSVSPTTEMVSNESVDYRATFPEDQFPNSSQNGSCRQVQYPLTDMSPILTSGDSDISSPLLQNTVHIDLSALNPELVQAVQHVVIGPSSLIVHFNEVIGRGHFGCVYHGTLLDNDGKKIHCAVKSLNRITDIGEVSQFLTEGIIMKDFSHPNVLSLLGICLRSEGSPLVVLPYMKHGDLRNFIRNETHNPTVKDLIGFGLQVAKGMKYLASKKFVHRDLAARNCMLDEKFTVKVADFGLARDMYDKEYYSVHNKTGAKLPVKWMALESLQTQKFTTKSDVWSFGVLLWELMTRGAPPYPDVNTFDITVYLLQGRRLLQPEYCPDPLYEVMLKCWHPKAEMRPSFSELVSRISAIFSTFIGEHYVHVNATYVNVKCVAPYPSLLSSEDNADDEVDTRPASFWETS
Protocol: PC-3 prostate cancer cells (ATCC #CRL-1435) were seeded at 4×10^4 cells/well onto 24-well plates (Greiner #662165), in DMEM (Thermo Fisher #11995-040) containing 10% FBS (Thermo Fisher #26140-079), 1% MEM NEAA (Thermo Fisher #11140-050), 1% GlutaMax (Thermo Fisher #35050-061), and 1% Penicillin Streptomycin (Thermo Fisher #15140-122). PC-3 cells were incubated at 37° C., 5% CO2 for 24 h and then starved for 3 h in serum-free medium. Test compounds were serially diluted to produce an 8-point dose curve in fresh serum-free medium to a final concentration of 0.3% DMSO (vehicle) and added to the cells and incubated for 1 h. Cells were then stimulated with 100 ng/mL recombinant human HGF (R&D Systems #294-HG-250) for 10 min, washed with cold PBS, and immediately lysed with 130 μL of cold IX lysis buffer [20 mM Tris, 137 mM sodium chloride, 2 mM EDTA, 10% glycerol, 1% NP-40 alternative, 1 mM activated sodium orthovanadate, 1 mM PefaBloc SC (Sigma-Aldrich #11429868001), protease/phosphatase inhibitor tablet (Thermo Fisher #A32959)]. Lysates were clarified by centrifugation and 100 μL/well added into the PathScan phospho-Met (panTyr) Sandwich ELISA (Cell Signaling Technology #7333). Assay was performed according to manufacturer's instructions. Positive control wells (100% activity) contained HGF-stimulated, DMSO-treated cell lysates. Negative control wells (0% activity) contained HGF-stimulated, reference inhibitor-treated cell lysates. IC50 values were calculated by nonlinear regression analysis using a 4-parameter logistic curve fit in ActivityBase XL (IDBS).

KDR = KDR (Homo sapiens (Human), UniProt P35968); assay: KDR autophosphorylation ELISA in HUVEC cells; conditions: cellular, VEGF165-stimulated, phospho-KDR ELISA
Sequence of KDR (P35968 20-1356): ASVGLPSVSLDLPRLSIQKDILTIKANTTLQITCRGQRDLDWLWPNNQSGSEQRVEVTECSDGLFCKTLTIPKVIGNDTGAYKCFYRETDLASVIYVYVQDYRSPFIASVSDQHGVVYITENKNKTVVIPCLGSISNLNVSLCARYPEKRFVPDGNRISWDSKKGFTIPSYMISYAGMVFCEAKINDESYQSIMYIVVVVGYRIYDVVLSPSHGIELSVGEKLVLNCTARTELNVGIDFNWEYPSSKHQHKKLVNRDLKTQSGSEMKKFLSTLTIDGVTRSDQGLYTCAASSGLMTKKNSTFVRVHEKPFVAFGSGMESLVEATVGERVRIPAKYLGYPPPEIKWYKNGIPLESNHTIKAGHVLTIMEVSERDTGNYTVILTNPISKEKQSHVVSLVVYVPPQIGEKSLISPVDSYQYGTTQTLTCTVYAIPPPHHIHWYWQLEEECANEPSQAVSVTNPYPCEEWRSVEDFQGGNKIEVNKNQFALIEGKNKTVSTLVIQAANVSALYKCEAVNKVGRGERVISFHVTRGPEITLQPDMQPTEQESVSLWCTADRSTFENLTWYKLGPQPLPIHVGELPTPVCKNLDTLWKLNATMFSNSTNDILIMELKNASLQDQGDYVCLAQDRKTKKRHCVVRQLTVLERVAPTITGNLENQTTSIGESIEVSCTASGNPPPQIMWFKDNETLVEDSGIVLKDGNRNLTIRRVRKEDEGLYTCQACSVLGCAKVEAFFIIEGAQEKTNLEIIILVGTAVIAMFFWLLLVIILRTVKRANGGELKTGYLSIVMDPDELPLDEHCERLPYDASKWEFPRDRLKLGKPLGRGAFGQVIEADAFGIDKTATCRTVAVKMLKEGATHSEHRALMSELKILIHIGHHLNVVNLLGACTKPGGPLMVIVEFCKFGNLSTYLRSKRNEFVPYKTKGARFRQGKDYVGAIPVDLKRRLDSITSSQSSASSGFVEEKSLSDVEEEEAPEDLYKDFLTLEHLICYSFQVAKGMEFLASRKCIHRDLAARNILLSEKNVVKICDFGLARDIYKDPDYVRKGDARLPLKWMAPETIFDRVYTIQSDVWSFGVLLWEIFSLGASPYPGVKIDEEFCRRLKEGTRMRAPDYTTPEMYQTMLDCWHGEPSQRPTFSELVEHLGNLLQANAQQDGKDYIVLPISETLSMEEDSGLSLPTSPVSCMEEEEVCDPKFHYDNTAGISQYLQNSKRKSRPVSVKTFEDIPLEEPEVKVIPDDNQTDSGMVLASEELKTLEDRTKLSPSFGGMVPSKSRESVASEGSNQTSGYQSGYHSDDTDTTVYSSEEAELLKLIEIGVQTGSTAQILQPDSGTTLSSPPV
Protocol: Human umbilical vein endothelial cells or HUVEC (Lonza #C2519A) were seeded at 2×10^4 cells/well onto 96-well plates (Corning #3904), in EGM-2 growth medium (Lonza #CC-3162) containing 1% Penicillin Streptomycin (Thermo Fisher #15140-122). HUVEC cells were incubated at 37° C., 5% CO2 for 24 h and then starved for 24 h in serum-free EBM-2 basal medium (Lonza #CC-3156) containing 1% Penicillin Streptomycin. Test compounds were serially diluted to produce an 8-point dose curve in fresh serum-free medium to a final concentration of 0.3% DMSO (vehicle) and added to the cells and incubated for 1 h. Cells were then stimulated with 100 ng/mL recombinant human VEGF165 (R&D Systems #293-VE-500) for 5 min, washed with cold PBS, and immediately lysed with 130 μL of cold 1× lysis buffer [20 mM Tris, 137 mM sodium chloride, 2 mM EDTA, 10% glycerol, 1% NP-40 alternative, 1 mM activated sodium orthovanadate, 1 mM PefaBloc SC (Sigma-Aldrich #11429868001), protease/phosphatase inhibitor tablet (Thermo Fisher #A32959)]. Lysates were collected and 100 μL/well added into the human phospho-KDR Duo Set IC ELISA (R&D Systems #DYC 1766-2). Assay was performed according to manufacturer's instructions and sample phospho-KDR concentrations were extrapolated using human phospho-KDR control (R&D Systems #841421) as a standard. Positive control wells (100% activity) contained VEGF165-stimulated, DMSO-treated cell lysates. Negative control wells (0% activity) contained non-stimulated cell lysates. IC50 values were calculated by nonlinear regression analysis using a 4-parameter logistic curve fit in ActivityBase XE (IDBS).

Sequence of AXL (P30530 26-894): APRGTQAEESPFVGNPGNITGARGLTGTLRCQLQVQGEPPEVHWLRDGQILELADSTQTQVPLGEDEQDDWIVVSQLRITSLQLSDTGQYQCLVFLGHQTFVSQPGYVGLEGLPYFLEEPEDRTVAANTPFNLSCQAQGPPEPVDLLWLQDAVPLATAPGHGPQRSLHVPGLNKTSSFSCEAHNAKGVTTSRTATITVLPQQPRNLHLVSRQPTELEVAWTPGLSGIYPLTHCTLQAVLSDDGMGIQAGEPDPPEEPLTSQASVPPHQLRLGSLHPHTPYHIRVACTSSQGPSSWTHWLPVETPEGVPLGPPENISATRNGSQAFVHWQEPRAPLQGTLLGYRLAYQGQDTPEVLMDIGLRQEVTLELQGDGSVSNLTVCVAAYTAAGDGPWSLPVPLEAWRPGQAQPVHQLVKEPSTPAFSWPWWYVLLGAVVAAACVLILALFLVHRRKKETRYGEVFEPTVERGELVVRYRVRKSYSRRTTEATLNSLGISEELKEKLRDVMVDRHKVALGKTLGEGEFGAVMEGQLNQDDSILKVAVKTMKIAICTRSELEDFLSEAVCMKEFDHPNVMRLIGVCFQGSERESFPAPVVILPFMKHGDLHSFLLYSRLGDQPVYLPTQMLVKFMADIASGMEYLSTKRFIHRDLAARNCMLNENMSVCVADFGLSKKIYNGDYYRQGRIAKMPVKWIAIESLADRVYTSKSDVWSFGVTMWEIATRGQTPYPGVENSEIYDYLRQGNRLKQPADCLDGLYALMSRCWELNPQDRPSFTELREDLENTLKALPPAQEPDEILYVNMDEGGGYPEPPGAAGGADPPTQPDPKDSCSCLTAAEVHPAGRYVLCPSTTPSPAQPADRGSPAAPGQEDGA

SMILES	IC50 (AXL) [nM]	IC50 (Met) [nM]	IC50 (KDR) [nM]
O=C(Nc1ccc(F)cc1)C1(C(=O)Nc2ccc(Oc3ccnc4cc5c(nc34)OCCO5)cc2)CC1 [Compound 157, 1-N-[4-(2,3-dihydro-[1,4]dioxino[2,3-b][1,5]naphthyridin-6-yloxy)phenyl]-1-N′-(4-fluorophenyl)cyclopropane-1,1-dicarboxamide]	> 300	> 300	> 300
COc1nc2c(Oc3cc(F)c(NC(=O)C4(C(=O)Nc5ccc(F)cc5)CC4)cc3F)ccnc2cc1OCCN1CCOCC1 [Compound 153, 1-N′-[2,5-difluoro-4-[[6-methoxy-7-(2-morpholin-4-ylethoxy)-1,5-naphthyridin-4-yl]oxy]phenyl]-1-N-(4-fluorophenyl)cyclo-propane-1,1-dicarboxamide]	≤ 10	10 to 100	≤ 10
O=C(Nc1ccc(F)cc1)C1(C(=O)Nc2ccc(Oc3ccnc4cc5c(nc34)OCCO5)c(Cl)c2)CC1 [Compound 159, 1-N′-[3-chloro-4-(2,3-dihydro-[1,4]dioxino[2,3-b][1,5]naphthyridin-6-yloxy)phenyl]-1-N-(4-fluorophenyl)cyclopropane-1,1-dicarboxamide]	> 300	100 to 300	> 300
CNC(=O)c1nc2c(Oc3ccc(NC(=O)C4(C(=O)Nc5ccc(F)cc5)CC4)cc3)ccnc2cc1OC [Compound 172, 1-N′-(4-fluorophenyl)-1-N-[4-[[7-methoxy-6-(methyl-carbamoyl)-1,5-naphthyridin-4-yl]oxy]phenyl]cyclo-propane-1,1-dicarboxamide]	100 to 300	> 300	> 300
COc1cc2ncnc(Oc3ccc(NC(=O)C4(C(=O)Nc5ccc(F)cc5)CC4)c(Cl)c3)c2nc1OC [Compound 32, 1-N′-[2-chloro-4-(6,7-dimethoxypyrido[3,2-d]pyrimidin-4-yl)oxyphenyl]-1-N-(4-fluorophenyl)cyclo-propane-1,1-dicarboxamide]	10 to 100	100 to 300	100 to 300
COc1cc2ncnc(Oc3ccc(NC(=O)C4(C(=O)Nc5ccc(F)cc5)CC4)c(C)c3)c2nc1OC [Compound 33, 1-N′-[4-(6,7-dimethoxypyrido[3,2-d]pyrimidin-4-yl)oxy-2-methylphenyl]-1-N-(4-fluorophenyl)cyclopropane-1,1-dicarboxamide]	100 to 300	> 300	100 to 300
COc1cc2nccc(Oc3ccc(NC(=O)C4(C(=O)Nc5ccc(F)cc5)CC4)cc3)c2nc1-c1cn[nH]c1 [Compound 183, 1-N′-(4-fluorophenyl)-1-N-[4-[[7-methoxy-6-(1H-pyrazol-4-yl)-1,5-naphthyridin-4-yl]oxy]phenyl]cyclopropane-1,1-dicarboxamide]	> 300	> 300	> 300
COCCOc1cc2nccc(Oc3cc(F)c(NC(=O)C4(C(=O)Nc5ccc(F)cc5)CC4)cc3F)c2nc1OC [Compound 152, 1-N′-[2,5-difluoro-4-[[6-methoxy-7-(2-methoxy-ethoxy)-1,5-naphthyridin-4-yl]oxy]phenyl]-1-N-(4-fluoro-phenyl)cyclopropane-1,1-dicarboxamide]	≤ 10	10 to 100	≤ 10
COc1cnc2c(Oc3cc(F)c(NC(=O)C4(C(=O)Nc5ccc(F)cc5)CC4)cc3F)ccnc2c1 [Compound 176, 1-N′-[2,5-difluoro-4-[(7-methoxy-1,5-naphthyridin-4-yl)oxy]phenyl]-1-N-(4-fluorophenyl)cyclopropane-1,1-dicarboxamide]	≤ 10	10 to 100	100 to 300
COc1cc2nccc(Oc3ccc(NC(=O)C4(C(=O)Nc5ccc(F)cc5)CC4)cc3)c2nc1C#N [Compound 164, 1-N-[4-[(6-cyano-7-methoxy-1,5-naphthyridin-4-yl)oxy]phenyl]-1-N′-(4-fluoro-phenyl)cyclopropane-1,1-dicarboxamide]	100 to 300	> 300	100 to 300
COc1cc2nccc(Oc3ccc(NC(=O)C4(C(=O)Nc5ccc(F)cc5)CC4)cc3Cl)c2nc1C(N)=O [Compound 169, 1-N′-[4-[(6-carbamoyl-7-methoxy-1,5-naphthyridin-4-yl)oxy]-3-chlorophenyl]-1-N-(4-fluorophenyl)cyclo-propane-1,1-dicarboxamide]	10 to 100	10 to 100	10 to 100
COc1cc2nccc(Oc3ccc(NC(=O)C4(C(=O)Nc5ccc(F)cc5)CC4)cc3F)c2nc1C(N)=O [Compound 168, 1-N′-[4-[(6-carbamoyl-7-methoxy-1,5-naphthyridin-4-yl)oxy]-3-fluoro-phenyl]-1-N-(4-fluorophenyl)cyclopropane-1,1-dicarboxamide]	> 300	100 to 300	> 300
COc1cc2nccc(Oc3ccc(NC(=O)C4(C(=O)Nc5ccc(F)cc5)CC4)cc3Cl)c2nc1C#N [Compound 166, 1-N′-[3-chloro-4-[(6-cyano-7-methoxy-1,5-naphthyridin-4-yl)oxy]phenyl]-1-N-(4-fluorophenyl)cyclopropane-1,1-dicarboxamide]	100 to 300	100 to 300	10 to 100
COc1cc2nccc(Oc3cc(F)c(NC(=O)C4(C(=O)Nc5ccc(F)cc5)CC4)cc3F)c2nc1OC [Compound 142, 1-N′-[4-[(6,7-dimethoxy-1,5-naphthyridin-4-yl)oxy]-2,5-difluorophenyl]-1-N-(4-fluorophenyl)cyclo-propane-1,1-dicarboxamide]	≤ 10	10 to 100	≤ 10
COc1cc2nccc(Oc3ccc(NC(=O)C4(C(=O)Nc5ccc(F)cc5)CC4)cc3)c2nc1C(=O)N(C)C [Compound 174, 1-N-[4-[[6-(dimethyl-carbamoyl)-7-methoxy-1,5-naphthyridin-4-yl]oxy]phenyl]-1-N′-(4-fluorophenyl)cyclopropane-1,1-dicarboxamide]	> 300	100 to 300	> 300
CNC(=O)c1nc2c(Oc3ccc(NC(=O)C4(C(=O)Nc5ccc(F)cc5)CC4)cc3F)ccnc2cc1OC [Compound 173, 1-N′-[3-fluoro-4-[[7-methoxy-6-(methylcarbamoyl)-1,5-naphthyridin-4-- yl]oxy]phenyl]-1-N-(4-fluoro-phenyl)cyclopropane-1,1-dicarboxamide]	100 to 300	100 to 300	100 to 300
